What was measured:
[1] = system: Human airway epithelial cells; assay: Transfection efficiency, luciferase assay in HAE cells (Example 19); type: cell-based; design: scale not given here; conditions: peptide:DNA 4:1, peptide [K]16 GACRRETAWACG
Description: The activity of various compositions of the invention was measured in HAE cells using a Luciferase assay. RLU/mg refers to relative light units per mg of protein. The assay was carried out as follows:
Lipid (10 mg/mL; […] [1 mg of lipid]) in chloroform was placed into a glass vial (sterile). The solvents were removed in vacuo and further traces of chloroform were removed on the high vacuum for 24 h. Cationic lipids were either formulated alone or with DOPE (mole ratio, 1:1).
Deionized water (1 mL; MilliQ) was added to the film, to generate […] solution of lipid in water. The mixture was allowed to hydrate at 4° C. for 24 h. After warming to 40° C. the mixture was sonicated to generate a clear solution (5 in approx). The resulting liposome formulations were stable for up to 3 months.
The components of the complex were mixed in the required weight ratio. The lipid was initially mixed with the peptide and the resulting mixture was added to the plasmid DNA.
Human airway epithelial cells were seeded for 24 h at 37 °C in complete growth medium in a […]. Transfection complexes were left to aggregate for 30 min and diluted to a concentration of 1 μg of DNA per 0.5 ml in OptiMEM (Life technologies). The medium was removed from each well and replaced with 0.5 ml of transfection complex and was allow to incubate for a further 4 h. The transfection complexes were removed and then replace with growth medium and the cells were allowed to incubate for 48 h.
The transfected cells were washed with phosphate-buffered saline (PBS). Reporter lysis buffer (100 μl) (Promega) was added to each well and cooled to 4 °C for 15 min. The cells were then assayed with a luciferase assay kit. The total light emission was measured for each well for 60 sec. The protein concentration of each sample was determined using a protein assay reagent and the activity expressed as relative light units per milligram of protein (RLU/mg).
The values obtained for the lipids produced in Examples 17 and 18 above and for Lipofectin were measured at 1:1 and 2:1 ratios of lipid:DNA, and in each case the ratio of peptide:DNA was 4:1, the peptide used being [K]16 GACRRETAWACG. The ratios are expressed in terms of weight. The testing procedure used was that outlined in Human Gene Therapy 9, 575-585, 1998.

[2] = system: integrins; conditions: cited from earlier work; for affinity and specificity for integrins: literature

Molecule	luciferase activity, relative light units per mg of protein ([1]; 1:1 lipid:DNA by weight) [RLU/mg]	luciferase activity, relative light units per mg of protein ([1]; 2:1 lipid:DNA by weight) [RLU/mg]	affinity and specificity for integrins [2]	integrin specificity ([2]; table of peptides)
CCCCCCCC/C=C\CCCCCCCC(=O)OC(C[N+](C)(C)C)C(C[N+](C)(C)C)OC(=O)CCCCCCC/C=C\CCCCCCCC.[I-].[I-] (centres unmarked) [Example 17, 1,4-Di(trimethylammonium)-2,3-dioleoyloxy-butane; diiodide]	1.2	2.0		
CCCCCCCC/C=C\CCCCCCCCOC(C[N+](C)(C)C)C(C[N+](C)(C)C)OCCCCCCCC/C=C\CCCCCCCC (centres unmarked) [Example 18, 1,4-Di(trimethylammonium)-2,3-dioleyloxy-butane; diiodide]	43.2	373.3		
GACDCRGDCFCA [Peptide 5]			high affinity for integrin v but is not v-specific	Peptide 5 (αv)
GACRGDMFGCA [Peptide 1]			affinity for 5 and av integrins but is non-specific	
GACRRETAWACG [Peptide 6]			51-specific	

Source: US7598421B2, “Materials for the delivery of biologically-active material to cells” (UCL Biomedica PLC, priority 2002, dated 2009)
